We go through twelve molecules from patent publication US9301951B2 (Ardelyx, Inc., priority 2010, dated 2016).

One assay deals with T1, human NaP2b (SLC34A2) (Homo sapiens, UniProt O95436).
T1 construct: host or cells: HEK293
T1 sequence (O95436 1-690): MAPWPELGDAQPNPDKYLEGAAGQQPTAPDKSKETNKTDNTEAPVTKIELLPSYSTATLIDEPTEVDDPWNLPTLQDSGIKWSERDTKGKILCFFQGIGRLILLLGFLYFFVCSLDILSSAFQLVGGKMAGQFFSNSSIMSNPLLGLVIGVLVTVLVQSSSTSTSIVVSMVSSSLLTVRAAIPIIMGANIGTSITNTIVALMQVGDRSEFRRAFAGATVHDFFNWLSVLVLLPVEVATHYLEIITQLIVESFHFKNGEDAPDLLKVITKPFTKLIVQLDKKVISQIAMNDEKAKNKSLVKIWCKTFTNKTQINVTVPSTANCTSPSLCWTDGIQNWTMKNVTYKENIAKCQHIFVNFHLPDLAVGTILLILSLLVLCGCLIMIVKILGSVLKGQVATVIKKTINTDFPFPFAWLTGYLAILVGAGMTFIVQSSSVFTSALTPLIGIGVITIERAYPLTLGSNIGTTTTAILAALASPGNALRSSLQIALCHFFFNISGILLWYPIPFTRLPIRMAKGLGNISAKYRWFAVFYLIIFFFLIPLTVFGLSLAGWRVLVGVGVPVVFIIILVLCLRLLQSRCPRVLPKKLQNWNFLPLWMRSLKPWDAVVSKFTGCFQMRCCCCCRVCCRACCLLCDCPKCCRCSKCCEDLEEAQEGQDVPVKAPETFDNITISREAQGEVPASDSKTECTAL
As to the kind of experiment: Inhibition of NaP2b-mediated Pi (33P) uptake in transfected HEK293 cells, human NaP2b. The format is cell-based. As to conditions: HEK293 cells transfected with human NaP2b, 100 uM phosphate, 0.1 nM to 30 uM, read-out: pIC50 range for human NaP2b (converted). As for the experimental part:
(§1) HEK293 cells were obtained from the American Type Culture collection and propagated per their instructions. Expression clones for rat and human NaP2b (SLC34A2) were obtained from Open Biosystems (Catalog numbers MRN1768-9510282, and MHS1010-99823026, respectively). The sequence of the human protein was mutated to insert a threonine after residue 37, and to introduce a N39D mutation.
The rate of phosphate (Pi) uptake into HEK293 cells was measured using a modification of the method described by Mohrmann et al. (Mohrmann, I., Mohrmann, M., Biber, J., and Murer, H. (1986) Am. J. Phys. 250(3 Pt 1):G323-30.) Transfected HEK293 cells were treated with a pharmacological agent to minimize endogenous PiT-mediated phosphate transport activity, such that the only remaining sodium-dependent phosphate transport activity is that which was bestowed by introduction of the NaP2b genes.
(§2) Cells were seeded into 96-well plates at 25,000 cells/well and cultured overnight. Lipofectamine 2000 (Invitrogen) was used to introduce the NaP2b cDNA, and the cells were allowed to approach confluence during a second overnight incubation. […] Cells were then overlayed with either choline uptake buffer or sodium uptake buffer (14 mM Tris, 137 mM sodium chloride, 5.4 mM KCl, 2.8 mM CaCl2, 1.2 mM MgSO4, 100 uM KH2PO4, PiT-silencing agent, 1 mg/mL Bovine Serum Albumin, pH 7.4) containing 6-9 uCi/mL ^33P orthophosphoric acid (Perkin Elmer) and test compound. Each compound was tested at twelve concentrations ranging from 0.1 nM to 30 uM. Assays were run in duplicate.
After incubation for 3-30 minutes at room temperature, assay mixtures were removed, and the cells were washed twice with ice cold stop solution (137 mM sodium chloride, 14 mM Tris, pH 7.4). Cells were lysed by addition of 20 μL 0.1% Tween 80 followed by 100 μL scintillation fluid, and counted using a TopCount (Perkin Elmer).
(§3) pIC50 (the negative log of the […]) values of the test compounds were calculated using GraphPad Prism.

In another assay the target is T2, rat NaP2b (SLC34A2) (Rattus norvegicus, UniProt Q9JJ09).
T2 construct: host or cells: HEK293
T2 sequence (Q9JJ09 1-695): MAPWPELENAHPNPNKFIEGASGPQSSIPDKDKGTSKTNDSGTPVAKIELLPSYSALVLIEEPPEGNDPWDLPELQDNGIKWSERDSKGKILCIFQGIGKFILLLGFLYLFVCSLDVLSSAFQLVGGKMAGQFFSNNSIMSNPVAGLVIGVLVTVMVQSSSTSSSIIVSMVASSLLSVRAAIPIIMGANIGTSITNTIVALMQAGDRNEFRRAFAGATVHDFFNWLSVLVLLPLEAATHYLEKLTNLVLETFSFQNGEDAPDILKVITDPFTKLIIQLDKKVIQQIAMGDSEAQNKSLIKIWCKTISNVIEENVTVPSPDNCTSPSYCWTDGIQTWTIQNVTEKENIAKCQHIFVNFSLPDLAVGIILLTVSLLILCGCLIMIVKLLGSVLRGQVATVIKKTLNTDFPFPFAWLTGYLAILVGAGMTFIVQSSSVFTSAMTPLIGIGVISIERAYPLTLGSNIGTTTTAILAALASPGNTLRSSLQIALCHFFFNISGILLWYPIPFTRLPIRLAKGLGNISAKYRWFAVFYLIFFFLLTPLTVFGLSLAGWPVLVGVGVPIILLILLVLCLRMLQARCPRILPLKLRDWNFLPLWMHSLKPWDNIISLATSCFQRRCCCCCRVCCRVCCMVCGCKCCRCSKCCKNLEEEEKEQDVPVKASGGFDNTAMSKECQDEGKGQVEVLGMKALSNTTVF
As to the kind of experiment: Inhibition of NaP2b-mediated Pi (33P) uptake in transfected HEK293 cells, rat NaP2b. The format is cell-based. As to conditions: HEK293 cells transfected with rat NaP2b, 100 uM phosphate, 0.1 nM to 30 uM, read-out: pIC50 range for rat Nap2b (converted). As for the experimental part:
as §1, §2
Cells were lysed by addition of 20 μL 0.1% Tween 80 followed by 100 μL scintillation fluid, and counted using a TopCount (Perkin Elmer).
as §3

Molecules are shown by their SMILES.

For `CCN(CC)c1ccc(NC(=O)c2cccc(CS(=O)(=O)CCOCCOCCOCCOCCC(=O)O)c2)c(-c2cc(C(=O)NCc3cccc(C(F)(F)F)c3)ccn2)c1` [Example 167, 1-(((3-((4-(diethylamino)-2-[4-(((3-(trifluoromethyl)phenyl]methyl)carbamoyl)pyridin-2-yl)phenyl)carbamoyl)phenyl)methane)sulfonyl)-3,6,9,12-tetraoxapentadecan-15-oic acid], the IC50 at human NaP2b (SLC34A2) and on rat NaP2b (SLC34A2) was 10000 to 31600 nM each time.
In the case of `CCN(CC)c1ccc(NC(=O)c2cccc(COCCOCCOCCOCCOC(=O)N(CCO)CCO)c2)c(-c2cc(C(=O)NCc3cccc(C(F)(F)F)c3)ccn2)c1` [Example 176, 1-(3-(4-(diethylamino)-2-(4-(3-(trifluoromethyl)benzylcarbamoyl)pyridin-2-yl)phenylcarbamoyl)phenyl)-2,5,8,11-tetraoxamidecan-13-yl bis(2-hydroxyethyl)carbamate], the IC50 on human NaP2b (SLC34A2) and on rat NaP2b (SLC34A2) was 1000 to 7940 nM each time.
Regarding `CCN(CC)c1ccc(NC(=O)c2cccc(COCCOCCOCCOCCOC(=O)NC(CO)(CO)CO)c2)c(-c2cc(C(=O)NCc3cccc(C(F)(F)F)c3)ccn2)c1` [Example 177, 1-(3-(4-(diethylamino)-2-(4-(3-(trifluoromethyl)benzylcarbamoyl)pyridin-2-yl)phenylcarbamoyl)phenyl)-2,5,8,11-tetraoxamidecan-13-yl 1,3-dihydroxy-2-(hydroxymethyl)propan-2-ylcarbamate], the IC50 on human NaP2b (SLC34A2) and at rat NaP2b (SLC34A2) was 1000 to 7940 nM each time.
For `CCN(CC)c1ccc(NC(=O)c2cccc(Cn3ccc4c(C(=O)NCCOCCOCCOCCC(=O)O)cccc43)c2)c(-c2cc(C(=O)N[C@H]3CCCc4ccccc43)ccn2)c1` [Example 182, (S)-1-(1-(3-(4-(diethylamino)-2-(4-(1,2,3,4-tetrahydronaphthalen-1-ylcarbamoyl)pyridin-2-yl)phenylcarbamoyl)benzyl)-1H-indol-4-yl)-1-oxo-5,8,11-trioxa-2-azatetradecan-14-oic acid], the IC50 on human NaP2b (SLC34A2) and on rat NaP2b (SLC34A2) was under 1000 nM each time.
On to `CN(CCN1CCC[C@H]1C(=O)N(C)CCOCCOCCOCCC(=O)OC(C)(C)C)C(=O)c1cccc(C(=O)Nc2ccc(N3CCCCC3)cc2-c2cc(C(=O)N[C@H]3CCCc4ccccc43)ccn2)c1` [Example 190, tert-Butyl 2-methyl-1-((S)-1-(2-(N-methyl-3-((4-(piperidin-1-yl)-2-(4-(((S)-1,2,3,4-tetrahydronaphthalen-1-yl)carbamoyl)pyridin-2-yl)phenyl)carbamoyl)benzamido)ethyl)pyrrolidin-2-yl)-1-oxo-5,8,11-trioxa-2-azatetradecan-14-oate], for which the IC50 at human NaP2b (SLC34A2) is 1000 to 7940 nM.
On the same count and under the same terms, the value for `CCN(CC)c1ccc(NC(=O)c2cccc(CCCOCCOCCOCCOCCC(=O)N(C)CCOCCOCCOCCOCCOCCOCCOC)c2)c(-c2cc(C(=O)NCc3cccc(C(F)(F)F)c3)ccn2)c1` [Example 259, 2-(5-(diethylamino)-2-(3-(23-methyl-24-oxo-2,5,8,11,14,17,20,27,30,33,36-undecaoxa-23-azanonatriacontan-39-yl)benzamido)phenyl)-N-(3-(trifluoromethyl)benzyl)isonicotinamide] was 1000 to 7940 nM; that for `CCN(CC)c1ccc(NC(=O)c2cccc(CCCOCCOCCOCCOCCC(=O)NCCOCCOCCOCCOCCOCCOCCOC)c2)c(-c2cc(C(=O)NCc3cccc(C(F)(F)F)c3)ccn2)c1` [Example 260, 2-(5-(diethylamino)-2-(3-(24-oxo-2,5,8,11,14,17,20,27,30,33,36-undecaoxa-23-azanonatriacontan-39-yl)benzamido)phenyl)-N-(3-(trifluoromethyl)benzyl)isonicotinamide] was under 1000 nM.
As for `CCN(CC)c1ccc(NC(=O)c2cccc(CCCOCCOCCOCCOCCNC(=O)c3cccc(CCCOCCOCCOCCOCCOCCOCCOCCOCCOC)c3)c2)c(-c2cc(C(=O)NCc3cccc(C(F)(F)F)c3)ccn2)c1` [Example 271, 2-(2-(3-(1-(3-(2,5,8,11,14,17,20,23,26-nonaoxanonacosan-29-yl)phenyl)-1-oxo-5,8,11,14-tetraoxa-2-azaheptadecan-17-yl)benzamido)-5-(diethylamino)phenyl)-N-(3-(trifluoromethyl)benzyl)isonicotinamide], the IC50 on human NaP2b (SLC34A2) is under 1000 nM.
Turning to `O=C(O)CCOCCOCCOCCOCCCc1cccc(C(=O)Nc2ccc(OC3CCC3)cc2-c2cc(C(=O)N[C@H]3CCCc4ccccc43)ccn2)c1` [Example 285, (S)-16-(3-((4-cyclobutoxy-2-(4-((1,2,3,4-tetrahydronaphthalen-1-yl)carbamoyl)pyridin-2-yl)phenyl)carbamoyl)phenyl)-4,7,10,13-tetraoxahexadecan-1-oic acid], the IC50 at human NaP2b (SLC34A2) was under 1000 nM.
Still for that read-out and setting: the figure for `CCN(CC)c1ccc(NC(=O)c2cccc(CCCOCCOCCOCCOCCNS(=O)(=O)c3ccc(C(=O)N(C)CCOCCOCCOCCOCCOCCOCCOC)cc3)c2)c(-c2cc(C(=O)NCc3cccc(C(F)(F)F)c3)ccn2)c1` [Example 287, 2-(2-(3-(1-(4-(2,5,8,11,14,17,20-heptaoxadocosan-22-yl(methyl)carbamoyl)phenylsulfonamido)-3,6,9,12-tetraoxapentadecan-15-yl)benzamido)-5-(diethylamino)phenyl)-N-(3-(trifluoromethyl)benzyl)isonicotinamide] is 1000 to 7940 nM; for `CCN(CC)c1ccc(NC(=O)c2cccc(CCCOCCOCCOCCOCCNS(=O)(=O)c3ccc(C(=O)N4CCN(CCOCCOCCOCCOCCOCCOCCOC)C(=O)C4)cc3)c2)c(-c2cc(C(=O)NCc3cccc(C(F)(F)F)c3)ccn2)c1` [Example 288, 2-(2-(3-(1-(4-(4-(2,5,8,11,14,17,20-heptaoxadocosan-22-yl)-3-oxopiperazine-1-carbonyl)phenylsulfonamido)-3,6,9,12-tetraoxapentadecan-15-yl)benzamido)-5-(diethylamino)phenyl)-N-(3-(trifluoromethyl)benzyl)isonicotinamide] it is 1000 to 7940 nM; for `CCN(CC)c1ccc(NC(=O)c2cccc(CCCOCCOCCOCCOCCNS(=O)(=O)c3ccc(CCC(=O)NCCOCCOCCOCCOCCOCCOCCOC)cc3)c2)c(-c2cc(C(=O)NCc3cccc(C(F)(F)F)c3)ccn2)c1` [Example 296, 2-(5-(diethylamino)-2-(3-(1-(4-(24-oxo-2,5,8,11,14,17,20-heptaoxa-23-azahexacosan-26-yl)phenylsulfonamido)-3,6,9,12-tetraoxapentadecan-15-yl)benzamido)phenyl)-N-(3-(trifluoromethyl)benzyl)isonicotinamide] it is 1000 to 7940 nM.
